# Laboratory results: US8841284B2, “Compound having neurite-outgrowing activity” (Lead Chemical Co., Ltd, priority 2009, dated 2014)
# How the values were obtained:
# [1] = test system: rat spinal cord dorsal root ganglion neuron; test: Neurite (axon)-outgrowing activity, rat spinal cord dorsal root ganglion neuron, laminin-coated culture vessel; assay type: cell-based; settings: 1 μM; second day of culture; FIG. 9
# [2] = test system: rat fetus (viviparity 17 days) cerebral cortex neuron; test: Neurite-outgrowing activity, rat fetus cerebral cortex neuron, poly-L-lysine-coated culture vessel; assay type: cell-based; settings: for Neurite Density / Neurite Length / Neurite Thickness: relative amount, basal medium = 1
# Method: Rat fetus (viviparity 17 days) cerebral cortex neuron (Sumitomo Bakelite Co., Ltd.)
# From a frozen cerebral tissue, using an attached protocol and attached reagents, a cerebral cortex neuron was prepared, was cultured in an NSF-1 (neurotrophic factor; name of substance or the like is not disclosed)-added PNBM medium for 2 hours, and then in a PNBM medium containing the sample (the compound produced in Example 1).
# The dissemination was performed with a neuron concentration of 2×10^5 cells/0.5 mL/well (24-well-plate).
# (§1) The sample (the compound produced in Example 1) was dissolved in DMSO to prepare a 10 mM solution. The 10 mM solution was diluted with DMSO to prepare a 1 mM solution. Further dilution of the solution was performed with a PNBM medium.
# (§2) Finally, sample-added media of 0.2 μM concentration and 1 μM concentration were prepared. With respect to the mNGF medium, a 5 ng/mL mNGF-added medium and a 25 ng/mL mNGF-added medium were prepared.
# Culture in Poly-L-Lysine-Coated Culture Vessel
# (§3) On the third day of the culture, the culture medium was exchanged. Photographs of a neuron on the fifth day of the culture are shown in the drawings (a photograph of a neuron on the fifth day of the culture in the basal medium (additive-free) is shown in FIG. 4; a photograph of a neuron on the fifth day of the culture in the neurotrophic factor (NSF-1)-added medium is shown in FIG. 5; and a photograph of a neuron on the fifth day of the culture in the sample-added medium (1 μM concentration) is shown in FIG. 6). Here, the number in Table 1 indicates a relative amount when the value in the basal medium (additive-free) is assumed to be 1.
# [3] = test system: rat spinal cord dorsal root ganglion neuron; test: Neurite (axon)-outgrowing activity, rat spinal cord dorsal root ganglion neuron, laminin-coated culture vessel; assay type: cell-based; settings: fifth day of culture; for Neurite (axon) Density / Neurite (axon) Length / Neurite (axon) Thickness: relative amount, basal medium = 1
# Method: Rat spinal cord dorsal root ganglion (Takara Bio Inc.)
# Laminin-coated: a well was coated with a culture supernatant containing laminin 5B to be used.
# A spinal cord neuron in a frozen state was thawed according to the attached protocol and the neuron was cultured in an NSF-1-added PNBM medium for 2 hours and then in a PNBM medium containing the sample (the compound produced in Example 1).
# The dissemination was performed with a spinal cord neuron concentration of 2.5×10^4 cells/0.1 mL/well (96-well-plate).
# as §1, §2
# Culture in Laminin-Coated Culture Vessel
# A spinal cord neuron can easily outgrow a neurite (axon) and outgrows a neurite even in an additive-free medium.
# as §3, with “FIG. 10;” for “FIG. 4;”, “FIG. 11;” for “FIG. 5;”, “FIG. 12).” for “FIG. 6).”, “Table 2” for “Table 1”
molecule,measurement,setting,value
"C[C@@H]([C@H]1CC[C@H]2[C@@H]3CCc4cc(O)ccc4[C@H]3CC[C@]12C)[C@H]1CC=C(CO)C(=O)O1 [Example 1, 6-[1-(3-hydroxy-13-methyl-7,8,9,11,12,13,14,15,16,17-decahydro-6H-cyclopenta[a]phenanthren-17-yl)-ethyl]-3-hydroxymethyl-5,6-dihydropyran-2-one]",axon outgrowth (in words),[1],"the axon outgrew more than in the basal medium (additive-free), but less than in the neurotrophic factor (NSF-1)-added medium"
same,Neurite Density,"[2]; 0.2 μM, fifth day of culture",1
same,Neurite Length,"[2]; 0.2 μM, fifth day of culture",1
same,Neurite Thickness,"[2]; 0.2 μM, fifth day of culture",1
same,neurite-outgrowing activity (in words),"[2]; 1 μM, fifth day of culture",has a neurite-outgrowing activity
same,Neurite Density,"[2]; 1 μM, fifth day of culture",1.5
same,Neurite Length,"[2]; 1 μM, fifth day of culture",2
same,Neurite Thickness,"[2]; 1 μM, fifth day of culture",2
same,number of neurites (in words),"[2]; 1 μM, second day of culture, FIG. 3","the number of neurites increased more than in the basal medium (additive-free), but less than in the neurotrophic factor (NSF-1)-added medium"
same,Neurite (axon) Density,[3]; 0.2 μM,2
same,Neurite (axon) Length,[3]; 0.2 μM,2
same,Neurite (axon) Thickness,[3]; 0.2 μM,1
same,axon length and thickness (in words),[3]; 1 μM,the axon outgrew longer but did not become thicker
same,Neurite (axon) Density,[3]; 1 μM,2
same,Neurite (axon) Length,[3]; 1 μM,2.5
same,Neurite (axon) Thickness,[3]; 1 μM,1
same,melting point,,248 to 250 °C
"NGF: mNGF2. 5S (alomone labs, PRODUCT#N-100), used as mNGF-added medium (protein, UniProt P01139 122-241, looked up, Beta-nerve growth factor, mNGF2; 5S (alomone labs, PRODUCT#N-100), used as mNGF-added medium) Beta-nerve growth factor: SSTHPVFHMGEFSVCDSVSVWVGDKTTATDIKGKEVTVLAEVNINNSVFRQYFFETKCRASNPVESGCRGIDSKHWNSYCTTTHTFVKALTTDEKQAAWRFIRIDTACVCVLSRKATRRG",Neurite Density,"[2]; 5 ng/mL, fifth day of culture",2
same,Neurite Length,"[2]; 5 ng/mL, fifth day of culture",2
same,Neurite Thickness,"[2]; 5 ng/mL, fifth day of culture",2
same,Neurite Density,"[2]; 25 ng/mL, fifth day of culture",2.5
same,Neurite Length,"[2]; 25 ng/mL, fifth day of culture",2
same,Neurite Thickness,"[2]; 25 ng/mL, fifth day of culture",2
same,Neurite (axon) Density,[3]; 5 ng/mL,2
same,Neurite (axon) Length,[3]; 5 ng/mL,2
same,Neurite (axon) Thickness,[3]; 5 ng/mL,1
same,Neurite (axon) Density,[3]; 25 ng/mL,2
same,Neurite (axon) Length,[3]; 25 ng/mL,3
same,Neurite (axon) Thickness,[3]; 25 ng/mL,2
